Test results from ChEMBL document CHEMBL5625200 (Eur J Med Chem, 2023).
Activity calls are given as the source filed them. The calls are words filed in the database; no cut-off is given here.

How the values were obtained:
Rattus norvegicus [1] = experiment: Antihypertensive activity against MCT-induced Wistar albino rat PAH model assessed as decreased mean pulmonary arterial pressure at 150 mg/kg, sc administered for 21 days (reference value: 19.18 +/- 0.360 mmHg); assay type: functional; conditions: time 21 day
Rattus norvegicus [2] = experiment: Antihypertensive activity against MCT-induced Wistar albino rat assessed as reduction of arterial wall thickening in peribronchial arteries at 150 to 300 mg/kg, sc by hematoxylin and eosin staining based microscopic analysis; assay type: functional, organism-based; conditions: dose 150-300 mg/kg
Rattus norvegicus [3] = experiment: Antihypertensive activity against MCT-induced Wistar albino rat assessed as decrease in ET-beta expression by measuring fold change at 300 mg/kg, sc by quantitative RT-PCR analysis (reference value: 15.17); assay type: functional
Rattus norvegicus [4] = experiment: Antihypertensive activity against MCT-induced Wistar albino rat assessed as reduction in HIF1alpha level at 300 mg/kg, sc by ELISA analysis (reference value: 312.00 +/- 1.36 ng/ml); assay type: functional
Rattus norvegicus [5] = experiment: Antihypertensive activity against MCT-induced Wistar albino rat PAH model assessed as decreased mean pulmonary arterial pressure at 300 mg/kg, sc administered for 21 days (reference value: 19.18 +/- 0.360 mmHg); assay type: functional; conditions: time 21 day
Rattus norvegicus [6] = experiment: Antioxidant activity against MCT-induced Wistar albino rat assessed as reduction in TBARS level at 300 mg/kg, sc by biochemical analysis (reference value: 123.03 +/- 0.47 micromol); assay type: functional
Rattus norvegicus [7] = experiment: Antihypertensive activity against MCT-induced Wistar albino rat assessed as decrease in ET-alpha expression by measuring fold change at 300 mg/kg, sc by quantitative RT-PCR analysis (reference value: 32.14); assay type: functional
Rattus norvegicus [8] = experiment: Antihypertensive activity against MCT-induced Wistar albino rat assessed as increase in eNOS expression by measuring fold change at 300 mg/kg, sc by quantitative RT-PCR analysis (reference value: 0.002); assay type: functional
Rattus norvegicus [9] = experiment: Antioxidant activity against MCT-induced Wistar albino rat assessed as increase in SOD level at 300 mg/kg, sc by biochemical analysis (reference value: 19.15 +/- 0.21 U/mg); assay type: functional
Rattus norvegicus [10] = experiment: Antihypertensive activity against MCT-induced Wistar albino rat assessed as increase in SGC expression by measuring fold change at 300 mg/kg, sc by quantitative RT-PCR analysis (reference value: 0.01); assay type: functional
Rattus norvegicus [11] = experiment: Antihypertensive activity against MCT-induced Wistar albino rat PAH model assessed as decreased right ventricular systolic pressure at 300 mg/kg, sc administered for 21 days (reference value: 55.19 +/- 0.026 mmHg); assay type: functional; conditions: time 21 day
Rattus norvegicus [12] = experiment: Antihypertensive activity against MCT-induced Wistar albino rat PAH model assessed as decreased right ventricular hypertrophy at 300 mg/kg, sc administered for 21 days (reference value: 0.42 +/- 0.020 […]); assay type: functional; conditions: time 21 day
Rattus norvegicus [13] = experiment: Antihypertensive activity against MCT-induced Wistar albino rat assessed as decrease in lung mPGES-1 expression at 300 mg/kg, sc by Western blotting analysis; assay type: functional, organism-based
Rattus norvegicus [14] = experiment: Antihypertensive activity against MCT-induced Wistar albino rat assessed as decrease in COX-2 expression by measuring fold change at 300 mg/kg, sc by quantitative RT-PCR analysis (reference value: 32.22); assay type: functional
Rattus norvegicus [15] = experiment: Antioxidant activity against MCT-induced Wistar albino rat assessed as increase in GSH level at 150 mg/kg, sc by biochemical analysis (reference value: 12.21 +/- 0.34 U/mg); assay type: functional
Rattus norvegicus [16] = experiment: Antioxidant activity against MCT-induced Wistar albino rat assessed as increase in GSH level at 300 mg/kg, sc by biochemical analysis (reference value: 12.21 +/- 0.34 U/mg); assay type: functional
Rattus norvegicus [17] = experiment: Antioxidant activity against MCT-induced Wistar albino rat assessed as increase in catalase level at 300 mg/kg, sc by biochemical analysis (reference value: 0.26 +/- 0.05 U/mg); assay type: functional
Rattus norvegicus [18] = experiment: Antioxidant activity against MCT-induced Wistar albino rat assessed as reduction in TBARS level at 150 mg/kg, sc by biochemical analysis (reference value: 123.03 +/- 0.47 micromol); assay type: functional
Rattus norvegicus [19] = experiment: Antihypertensive activity against MCT-induced Wistar albino rat assessed as reduction in TNNI3 level at 150 mg/kg, sc by ELISA analysis (reference value: 3.42 +/- 0.12 pg/ml); assay type: functional
Rattus norvegicus [20] = experiment: Antioxidant activity against MCT-induced Wistar albino rat assessed as increase in SOD level at 150 mg/kg, sc by biochemical analysis (reference value: 19.15 +/- 0.21 U/mg); assay type: functional
Rattus norvegicus [21] = experiment: Antioxidant activity against MCT-induced Wistar albino rat assessed as increase in catalase level at 150 mg/kg, sc by biochemical analysis (reference value: 0.26 +/- 0.05 U/mg); assay type: functional
Rattus norvegicus [22] = experiment: Antihypertensive activity against MCT-induced Wistar albino rat assessed as increase in lung eNOS expression at 300 mg/kg, sc by Western blotting analysis; assay type: functional, organism-based
Rattus norvegicus [23] = experiment: Antihypertensive activity against MCT-induced Wistar albino rat assessed as reduction in ANP level at 150 mg/kg, sc by ELISA analysis (reference value: 358.00 +/- 1.24 pg/ml); assay type: functional
Rattus norvegicus [24] = experiment: Antihypertensive activity against MCT-induced Wistar albino rat assessed as reduction in ANP level at 300 mg/kg, sc by ELISA analysis (reference value: 358.00 +/- 1.24 pg/ml); assay type: functional
Rattus norvegicus [25] = experiment: Antihypertensive activity against MCT-induced Wistar albino rat assessed as increase in lung SGC expression at 300 mg/kg, sc by Western blotting analysis; assay type: functional, organism-based
Rattus norvegicus [26] = experiment: Antihypertensive activity against MCT-induced Wistar albino rat PAH model assessed as decreased right ventricular hypertrophy at 150 mg/kg, sc administered for 21 days (reference value: 0.42 +/- 0.020 […]); assay type: functional; conditions: time 21 day
Rattus norvegicus [27] = experiment: Antihypertensive activity against MCT-induced Wistar albino rat PAH model assessed as decreased right ventricular systolic pressure at 150 mg/kg, sc administered for 21 days (reference value: 55.19 +/- 0.026 mmHg); assay type: functional; conditions: time 21 day
Rattus norvegicus [28] = experiment: Antihypertensive activity against MCT-induced Wistar albino rat assessed as decrease in mPGES-1 expression by measuring fold change at 300 mg/kg, sc by quantitative RT-PCR analysis (reference value: 10.99); assay type: functional
Rattus norvegicus [29] = experiment: Antihypertensive activity against MCT-induced Wistar albino rat assessed as decrease in lung COX-2 expression at 300 mg/kg, sc by Western blotting analysis; assay type: functional, organism-based
Endothelin-1 receptor = biological target: T1, Endothelin-1 receptor (Homo sapiens, UniProt P25101); experiment: Antagonist activity against human ET-1 by ELISA analysis; assay type: functional
T1 sequence (P25101 whole entry): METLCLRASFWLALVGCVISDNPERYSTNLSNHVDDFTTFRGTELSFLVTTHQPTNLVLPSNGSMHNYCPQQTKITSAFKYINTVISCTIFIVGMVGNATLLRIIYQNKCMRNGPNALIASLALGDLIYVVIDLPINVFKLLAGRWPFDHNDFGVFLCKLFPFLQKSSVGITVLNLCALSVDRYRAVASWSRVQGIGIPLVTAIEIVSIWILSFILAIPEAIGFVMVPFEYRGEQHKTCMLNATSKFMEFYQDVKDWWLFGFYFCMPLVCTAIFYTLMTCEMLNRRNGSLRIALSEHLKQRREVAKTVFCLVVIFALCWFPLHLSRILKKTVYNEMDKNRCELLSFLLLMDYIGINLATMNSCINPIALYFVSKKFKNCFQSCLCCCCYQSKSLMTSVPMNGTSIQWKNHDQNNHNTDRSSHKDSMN

Rattus norvegicus [30] = experiment: Antihypertensive activity against MCT-induced Wistar albino rat assessed as reduction in TNNI3 level at 300 mg/kg, sc by ELISA analysis (reference value: 3.42 +/- 0.12 pg/ml); assay type: functional
Rattus norvegicus [31] = experiment: Antihypertensive activity against MCT-induced Wistar albino rat assessed as reduction in HIF1alpha level at 150 mg/kg, sc by ELISA analysis (reference value: 312.00 +/- 1.36 ng/ml); assay type: functional
Rattus norvegicus [32] = experiment: Antihypertensive activity against MCT-induced Wistar albino rat assessed as presence of lung vasculitis at 150 to 300 mg/kg, sc by hematoxylin and eosin staining based microscopic analysis; assay type: functional, organism-based; conditions: dose 150-300 mg/kg
Rattus norvegicus [33] = experiment: Antihypertensive activity against MCT-induced Wistar albino rat PAH model assessed as reduction in peribronchial and interstitial inflammatory infiltrates and inter-alveolar vascular spaces at 150 to 300 mg/kg, sc by hematoxylin and eosin staining based microscopic analysis; assay type: functional, organism-based; conditions: dose 150-300 mg/kg

SMILES	Activity (Rattus norvegicus [1]) [mmHg]	fold change (FC) (Rattus norvegicus [3])	Activity (Rattus norvegicus [4]) [ng/mL]	Activity (Rattus norvegicus [5]) [mmHg]	Activity (Rattus norvegicus [6]) [µmol]	fold change (FC) (Rattus norvegicus [7])	fold change (FC) (Rattus norvegicus [8])	Activity (Rattus norvegicus [9]) [U/mg]	fold change (FC) (Rattus norvegicus [10])	Activity (Rattus norvegicus [11]) [mmHg]	Activity (Rattus norvegicus [12])	Activity (Rattus norvegicus [13])	fold change (FC) (Rattus norvegicus [14])	Activity (Rattus norvegicus [15]) [U/mg]	Activity (Rattus norvegicus [16]) [U/mg]	Activity (Rattus norvegicus [17]) [U/mg]	Activity (Rattus norvegicus [18]) [µmol]	Activity (Rattus norvegicus [19]) [pg/mL]	Activity (Rattus norvegicus [20]) [U/mg]	Activity (Rattus norvegicus [21]) [U/mg]	also measured
COc1ccccc1Oc1c(NS(C)(=O)=O)nc(-c2ncccn2)nc1OCCC(C)C	11.18	0.34	121	9.02	69.82	0.44	0.63	46.01	0.49	21.11	0.23	Active	1.81	21.92	28.09	1.21	78.12	1.94	38.21	1.09	Activity (Rattus norvegicus [2]): Active; Activity (Rattus norvegicus [22]): Active; Activity (Rattus norvegicus [23]): 241.2 pg/mL; Activity (Rattus norvegicus [24]): 224 pg/mL; Activity (Rattus norvegicus [25]): Active; Activity (Rattus norvegicus [26]): 0.26; Activity (Rattus norvegicus [27]): 26.82 mmHg; fold change (FC) (Rattus norvegicus [28]): 0.81; Activity (Rattus norvegicus [29]): Active; IC50 (Endothelin-1 receptor): 0.18 nM; Activity (Rattus norvegicus [30]): 1.84 pg/mL; Activity (Rattus norvegicus [31]): 139 ng/mL
CC/C=C/CCOc1nc(-c2ncccn2)nc(NS(C)(=O)=O)c1Oc1ccccc1OC	17.16	3.24	146	13.93	89	0.62	0.15	32.14	0.38	27.12	0.25	Active	2.43	14.02	19.81	0.95	102.23	2.67	25.43	0.68	Activity (Rattus norvegicus [22]): Active; Activity (Rattus norvegicus [23]): 261.12 pg/mL; Activity (Rattus norvegicus [32]): Active; Activity (Rattus norvegicus [24]): 245 pg/mL; Activity (Rattus norvegicus [25]): Active; Activity (Rattus norvegicus [26]): 0.29; Activity (Rattus norvegicus [27]): 33.18 mmHg; fold change (FC) (Rattus norvegicus [28]): 1.19; Activity (Rattus norvegicus [29]): Active; IC50 (Endothelin-1 receptor): 0.26 nM; Activity (Rattus norvegicus [30]): 2.36 pg/mL; Activity (Rattus norvegicus [31]): 163.12 ng/mL
COc1ccccc1Oc1c(NS(=O)(=O)c2ccccc2)nc(-c2ncccn2)nc1OCC1CCCN1C (stereo unspecified)	13.11	1.04	132.21	10.12	73.12	1.38	0.37	40.21	0.18	23.16	0.24	Active	2.91	17.27	22.72	1.05	88.12	2.32	31.12	0.81	Activity (Rattus norvegicus [33]): Active; Activity (Rattus norvegicus [22]): Active; Activity (Rattus norvegicus [23]): 252.13 pg/mL; Activity (Rattus norvegicus [24]): 238.08 pg/mL; Activity (Rattus norvegicus [25]): Active; Activity (Rattus norvegicus [26]): 0.27; Activity (Rattus norvegicus [27]): 29.08 mmHg; fold change (FC) (Rattus norvegicus [28]): 1.07; Activity (Rattus norvegicus [29]): Active; IC50 (Endothelin-1 receptor): 0.22 nM; Activity (Rattus norvegicus [30]): 2.1 pg/mL; Activity (Rattus norvegicus [31]): 158.12 ng/mL
